Data reported in patent publication US20260262641A1 (priority 2023, published 2026).
Converted amounts (≈) assume the structure as drawn.

Key:
[1] = test system: redlegged earth mite (H. destructor; RLEM); assay: whole plant or invertebrate; conditions: for LC50: read-out: LC50 (95% CI)
Procedure: On the 14th of May 2022, H. destructor were collected from capeweed (Arctotheca calendula) in South Morang, Victoria (−37.625, 145.110), a site with no known history of insecticide application. Mites were collected via suction using a Stihl SH55 blower vacuum, placed in plastic containers with paper towel and vegetation, and transported back to the laboratory, where they were stored at 4° C. until testing.
Serial dilutions were prepared for each insecticide (Table 1), with the addition of a non-ionic surfactant (Tween 20) at 0.01% to aid the spread of the insecticide and ensure even coating. […] Nine concentrations of pyridaben ranging from the proposed field rate of 1480 mL diluted in 100 L of water (1998 mg a.i./L) to 1×10^−5 were serially diluted and tested along with a water control. Eight concentrations of omethoate, ranging from 10 times the field rate of 100 mL diluted in 100 L of water (290 mg a.i./L) to 1×10^−5, were tested along with a water control. Seven concentrations of bifenthrin, ranging from 10 times the field rate of 40 mL diluted in 100 L of water (100 mg a.i./L) to 1×10^−5, were tested along with a water control. For each insecticide concentration tested, approximately 10 mL of solution was poured into a 15 mL plastic vial and swirled to ensure a complete coating, with excess liquid removed. Six vials were coated per concentration and were left to dry overnight. Control vials were treated in the same way, except water (with the addition of 0.01% Tween) was used.
(§1) Approximately eight individual H. destructor were then placed into each vial along with 2-3 leaves of common vetch (Vicia sativa), which provided food and humidity. Vials were then sealed with a screw lid and placed in a controlled temperature cabinet at 18° C. After 24-hours exposure, mites were scored as alive (moving freely), incapacitated (inhibited movement), or dead (no movement over a 5 second period).
Dose-response curves were generated by plotting percentage mortality against log concentration. […] Logistic regression is well suited for the analysis of binary response data (e.g., dead/alive). All analyses were conducted using R version 3.3.1 (R Development Core Team 2022).

[2] = test system: insecticide-resistant population of redlegged earth mite (H. destructor; RLEM); assay: whole plant or invertebrate; conditions: for LC50: read-out: LC50 (95% CI); for difference between insecticide-susceptible and resistant populations in response (in words): P < 0.05 level
Procedure: (§2) The insecticide-susceptible H. destructor population tested in this bioassay was collected from burr medic (Medicago polymorpha) and barley grass (Hordeum leporinum) in Moulamein, NSW (−35.102, 144.026), a site with no known history of insecticide application. […] Mites were collected via suction using a Stihl SH55 blower vacuum, placed in plastic containers with paper towel and vegetation, and transported back to the laboratory, where they were stored at 4° C. until testing.
(§3) Serial dilutions were prepared for each insecticide (Table 9), with the addition of a non-ionic surfactant (Tween 20) at 0.01% to aid the spread of the insecticide and ensure even coating. […] Nine concentrations of bifenthrin were tested, ranging from 1×10^−5 to 10 times the field rate of 40 mL diluted in 100 L of water (100 mg a.i./L). Seven concentrations of omethoate were tested, ranging from 1×10^−5 to 10 times the field rate of 100 mL in 100 L of water (290 mg a.i./L).
as §1, with “Six vials were coated per concentration and were left to dry overnight. Control vials were treated in the same way, except water (with the addition of 0.01% Tween) was used. The next day,” for “Approximately”
(§4) Dose-response curves were generated by plotting percentage mortality against log concentration. A series of logistic models were used to quantify the sensitivity of H. destructor to each chemical and to test whether any differences in sensitivity were present between the two populations. Logistic regression is well suited for the analysis of binary response data (e.g., dead/alive). Each model included chemical concentration and H. destructor population as fixed-effect predictors, which allowed testing for whether populations had average differences in mortality (i.e., model intercept) via F tests. It was then determined if populations had differences in mortality that were dependent on chemical concentration (i.e., differences in regression slopes) by comparing the inclusion of a population×concentration predictor (i.e., allowing slopes to vary between populations). […] The resulting LC50 values were used to quantify the level of insecticide resistance (resistance ratios) relative to the known insecticide-susceptible population. All analyses were conducted using R version 4.3.1 (R Development Core Team 2023).

[3] = test system: insecticide-susceptible population of redlegged earth mite (H. destructor; RLEM); assay: whole plant or invertebrate; conditions: Halotydeus destructor, 24 h; for LC50: read-out: LC50 (95% CI)
Procedure: as §2, §3
as §1, with “Six vials were coated per concentration and were left to dry overnight. Control vials were treated in the same way, except water (with the addition of 0.01% Tween) was used. The next day,” for “Approximately”
as §4

[4] = test system: couch mite (Aceria cynodoniensis); assay: Field trial in Santa Ana couch turfgrass, control of couch mite (Example 3); format: in vivo; conditions: for Biomass and vigor (0-10), 42 DAA2 / Biomass and vigor (0-10), Pre-spray: 0 to 10 rating scale; for Biomass and vigor (0-10), 42 DAA2 / NDVI, 42 DAA2 / % Incidence mite damage, 42 DAA2: product rate mL/ha: Prophesy 500, Thumper 2000 (+ BS 1000 0.25% v/v); for Biomass and vigor (0-10), 42 DAA2 / NDVI, 42 DAA2: Fenpyroximate 50 SC 4000; for NDVI, 42 DAA2 / NDVI, Pre-spray: Greenseeker; for % Incidence mite damage, 42 DAA2: 42 days after second application, Fenpyroximate 50 SC 4000 (200 g ai/ha); for Biomass and vigor (0-10), Pre-spray / NDVI, Pre-spray / % Incidence mite damage, Pre-spray: Pre-spray (baseline); for % Incidence mite damage, Pre-spray: witches' broom
Procedure: A field trial was conducted in Santa Ana couch turfgrass, to evaluate fenpyroximate for control of couch mite (Aceria cynodoniensis). The trial was located at Terrey Hills Golf and Country Club, New South Wales (−33.668, 151.217). […] All treatments were applied using a hand boom fitted with XR11004 nozzles and in a spray volume of 430 L/ha.
The incidence of couch mite damage, to the terminal growth point (known as witches' broom) was assessed 42 days after the second application. Turf biomass and vigor were assessed at the same timing on a 0 to 10 rating scale, along with NDVI using a Greenseeker.
(§5) All data was statistically analyzed using analysis of variance and Fisher's protected least significant different test (Fishers LSD). The level of significance for all tests was P<0.05.

[5] = test system: redlegged earth mite (H. destructor; RLEM); assay: Field trial in canola, pre- or post-emergent control of RLEM (Example 5); format: in vivo, Halotydeus destructor; conditions: application timing B (early post-emergent, 1 to 2 leaf canola)
Procedure: A field trial was conducted in canola cv. Garrison, to evaluate fenpyroximate for control of redlegged earth mite (H. destructor; RLEM) as a pre- or post-emergent application. The trial was located at Beverley, Western Australia (−32.2248085, 117.0268493). The canola was sown on 13th June 2023. […] All treatments were applied using a hand boom fitted with flat fan nozzles in a spray volume of 100 L/ha.
The density of RLEM was assessed 33 days after the second application timing by counting the number of mites per plant.
as §5

[6] = Halotydeus destructor, 24 h, read-out: % RLEM mortality
[7] = Halotydeus destructor, 24 h, read-out: % RLEM mortality, Resistant
[8] = read-out: % RLEM mortality, Susceptible

## Cc1c(COC(=O)[C@@H]2[C@H](/C=C(\Cl)C(F)(F)F)C2(C)C)cccc1-c1ccccc1 (racemic) [Bifenthrin]
[1]; [6]
  mortality at 0.001 µg/mL: 0%
  mortality at 0.01 µg/mL: 0%
  mortality at 0.1 µg/mL: 64.9%
  mortality at 0.3 µg/mL: 98.7%
  mortality at 1 µg/mL: 100%
  mortality at 10 µg/mL: 100%
  mortality at 100 µg/mL: 100%
[1]; Halotydeus destructor, 24 h
  LC50: 0.085 µg/mL (≈ 0.201 µM)
[2]
  Resistance ratio: 265.09
  difference between insecticide-susceptible and resistant populations in response (in words): significant difference
[2]; [7]
  mortality at 0.001 µg/mL: 4.4%
  mortality at 0.01 µg/mL: 9.3%
  mortality at 0.03 µg/mL: 5.8%
  mortality at 0.1 µg/mL: 22.3%
  mortality at 0.3 µg/mL: 44.6%
  mortality at 1 µg/mL: 48.9%
  mortality at 10 µg/mL: 70.9%
  mortality at 100 µg/mL: 59%
  mortality at 1000 µg/mL: 53.5%
[2]; Halotydeus destructor, 24 h
  LC50: 14.1 µg/mL (≈ 33.2 µM)
[3]; [8]
  mortality at 0.001 µg/mL: 7%
  mortality at 0.01 µg/mL: 4.7%
  mortality at 0.03 µg/mL: 17.4%
  mortality at 0.1 µg/mL: 74.3%
  mortality at 0.3 µg/mL: 98.1%
  mortality at 1 µg/mL: 100%
  mortality at 10 µg/mL: 100%
  mortality at 100 µg/mL: 100%
  mortality at 1000 µg/mL: 100%
[3]
  LC50: 0.053 µg/mL (≈ 0.125 µM)

## Clc1ccccc1-c1nnc(-c2ccccc2Cl)nn1 [Prophesy, Clofentezine]
[4]
  Biomass and vigor (0-10), 42 DAA2: 4.9
  NDVI, 42 DAA2: 0.64
  % Incidence mite damage, 42 DAA2: 52.0%
  Biomass and vigor (0-10), Pre-spray: 4.0 a
  NDVI, Pre-spray: 0.53 a
  % Incidence mite damage, Pre-spray: 94.0 a %
[4]; versus untreated, P<0.05
  turf biomass and vigor and NDVI (in words): also improved

## CNC(=O)CSP(=O)(OC)OC [Omethoate]
[1]; [6]
  mortality at 0.003 µg/mL: 0%
  mortality at 0.03 µg/mL: 2.8%
  mortality at 0.3 µg/mL: 11.7%
  mortality at 0.9 µg/mL: 55.3%
  mortality at 2.9 µg/mL: 98.1%
  mortality at 29 µg/mL: 100%
  mortality at 290 µg/mL: 100%
  mortality at 2900 µg/mL: 100%
[1]; Halotydeus destructor, 24 h
  LC50: 0.681 µg/mL (≈ 3.19 µM)
[2]; [7]
  mortality at 0.0029 µg/mL: 16.1%
  mortality at 0.029 µg/mL: 18.9%
  mortality at 0.29 µg/mL: 17.2%
  mortality at 2.9 µg/mL: 47.5%
  mortality at 29 µg/mL: 100%
  mortality at 290 µg/mL: 100%
  mortality at 2900 µg/mL: 100%
[2]; Halotydeus destructor, 24 h
  LC50: 0.935 µg/mL (≈ 4.39 µM)
[2]
  difference between insecticide-susceptible and resistant populations in response (in words): no statistically significant difference
[3]; [8]
  mortality at 0.0029 µg/mL: 7.6%
  mortality at 0.029 µg/mL: 10.1%
  mortality at 0.29 µg/mL: 32.1%
  mortality at 2.9 µg/mL: 95.8%
  mortality at 29 µg/mL: 100%
  mortality at 290 µg/mL: 100%
  mortality at 2900 µg/mL: 100%
[3]
  LC50: 0.348 µg/mL (≈ 1.63 µM)
[5]; product rate 100 mL/ha
  % Control (33 DAA2): 74%

## CC(C)c1cc(Oc2ccccc2)cc(C(C)C)c1NC(=S)NC(C)(C)C [Diafenthiuron]
[2]; [7]
  mortality at 0.03 µg/mL: 3.9%
  mortality at 0.3 µg/mL: 10.6%
  mortality at 3 µg/mL: 13.2%
  mortality at 30 µg/mL: 15.7%
  mortality at 300 µg/mL: 39.5%
  mortality at 3000 µg/mL: 75.5%
  mortality at 30000 µg/mL: 100%
  mortality at 90000 µg/mL: 100%
[2]
  difference between insecticide-susceptible and resistant populations in response (in words): significant population differences
[3]; [8]
  mortality at 0.03 µg/mL: 13.9%
  mortality at 0.3 µg/mL: 15.6%
  mortality at 3 µg/mL: 13%
  mortality at 30 µg/mL: 21.5%
  mortality at 300 µg/mL: 64.1%
  mortality at 3000 µg/mL: 100%
  mortality at 30000 µg/mL: 100%
  mortality at 90000 µg/mL: 100%
[5]; product rate 400 mL/ha
  % Control (33 DAA2): 54%

## CC(C)(C)c1ccc(CSc2cnn(C(C)(C)C)c(=O)c2Cl)cc1 [Pyridaben]
[1]; 24 hours exposure, highest rates tested
  mortality even at the highest rates: less than 50%
[1]; [6]
  mortality at 0.02 µg/mL: 0%
  mortality at 0.2 µg/mL: 0%
  mortality at 2 µg/mL: 0%
  mortality at 20 µg/mL: 0%
  mortality at 60 µg/mL: 0%
  mortality at 200 µg/mL: 9%
  mortality at 599 µg/mL: 23.4%
  mortality at 999 µg/mL: 45.5%
  mortality at 1998 µg/mL: 27.5%
[1]; laboratory bioassay, 24 hours exposure
  efficacy against RLEM (in words): not efficacious
[1]; range of concentrations tested 0.01998-1998 mg a.i./L
  highest mortality observed: 45%

## Abamectin [Thumper]
[4]
  Biomass and vigor (0-10), 42 DAA2: 4.4
  NDVI, 42 DAA2: 0.58
  % Incidence mite damage, 42 DAA2: 57.0%
  Biomass and vigor (0-10), Pre-spray: 3.9 a
  NDVI, Pre-spray: 0.52 a
  % Incidence mite damage, Pre-spray: 95.3 a %
